{"source": "paper PMC140124", "about": "(Biological Procedures Online, 1998)", "origin": "cited, not measured here", "note": "Like-named read-outs stand apart in the source and are kept apart here.", "data": [{"compound": "L-tyrosyl-D-arginine [D-KTP]", "values": [{"measurement": "absorption clearance (the overall transport clearance)", "setting": "rat everted jejunum, peptidase-resistant isomer, ref [2]", "result": 0.516, "unit": "µL/min/cm"}]}, {"compound": "L-tyrosyl-L-arginine [KTP]", "values": [{"measurement": "appearance on the serosal side", "setting": "absence of peptidase inhibitors, ref [2]", "result": "did not appear on the serosal side"}, {"measurement": "appearance on the serosal side", "setting": "presence of peptidase inhibitors such as o-phenanthrolin, tryptophan hydroxamate and bestatin, ref [2]", "result": "appeared on the serosal side"}]}, {"compound": "O=S1(=O)OC(c2ccc(O)cc2)(c2ccc(O)cc2)c2ccccc21", "note": "[phenol red]", "values": [{"measurement": "change of absorption clearance", "setting": "presence of peptidase inhibitors, ref [1]", "result": "did not increase"}]}]}
